Assays:
[1] = system: mice; conditions: cited from earlier work
[2] = system: Staphylococcus epidermidis; conditions: Ref. 22; cited from earlier work
[3] = system: Corynebacterium xerosis ATCC 7711; conditions: Ref. 23; cited from earlier work
[4] = acute oral semilethal dose (LD50) in mice; conditions: mouse, in vivo
Text: Thus, DTPA is a safe oral drug, representing a preferred iron chelator for the compositions of the present invention.
It is therefore a further preferred iron chelator for the compositions of the invention.

[5] = in vivo; cited from earlier work

| Structure (SMILES) | inhibition of growth of Staphylococcus epidermidis [2] | other results |
| --- | --- | --- |
| O=C(O)CN(CCN(CC(=O)O)CC(=O)O)CCN(CC(=O)O)CC(=O)O [DTPA, diethylenetriaminepentaacetic acid] | inhibit the growth | acute oral semilethal dose (LD50) [1]: 3500 mg/kg |
| O=C(O)C[C@H](NCCN[C@@H](CC(=O)O)C(=O)O)C(=O)O [R,S-EDDS, R,S-ethylenediaminedisuccinic acid] |  | inhibition of growth of Corynebacterium xerosis ATCC 7711 [3]: inhibit growth |
| O=C(O)CN(CCN(CC(=O)O)CC(=O)O)CC(=O)O [EDTA, ethylenediaminetetraacetic acid] | inhibit the growth |  |
| O=C(O)CN(CC(=O)O)[C@@H]1CCCC[C@H]1N(CC(=O)O)CC(=O)O (relative stereo) [CDTA, trans-1,2-diaminocyclohexane-N,N,N′,N′-tetraacetic acid] | inhibit the growth |  |
| O=C(O)CN(CCN(CC(=O)O)CC(=O)O)CCN(CC(=O)O)C(COCc1ccccc1)C(=O)O (centres unmarked) [BOPTA, 4-carboxy-5,8,11-tris(carboxymethyl)-1-phenyl-2-oxa-5,8,11-triazatridecan-13-oic acid] |  | LD50 [4]: 8400 µmol/kg |
| O=C([O-])CN(CCN(CC(=O)[O-])CC(=O)[O-])CCN(CC(=O)[O-])CC(=O)[O-].[H+].[H+].[Na+].[Na+].[Na+] [trisodium pentetate] |  | safety of oral dose [5]: proven to be safe |
| O=C(O)CN(CCN(CCN(CC(=O)O)CC(=O)O)CC(=O)O)CCN(CC(=O)O)CC(=O)O [TTHA, triethylene-tetraaminehexaacetic acid] | inhibit the growth |  |

From US20110206650A1, “Probiotic Formulations” (BRACCO IMAGING S.P.A., priority 2008, published 2011)
